Data published in ChEMBL document CHEMBL3091357, “Synthesis and biological evaluation of nimesulide based new class of triazole derivatives as potential PDE4B inhibitors against cancer cells” (Bioorg Med Chem Lett, 2013).
Blank lines part the entries; values can stand above or below the compound they belong to. Active and inactive are the calls of the source. No cut-off for these calls is given here.

Experiments:
[1] = target: T1, 3',5'-cyclic-AMP phosphodiesterase 4B (Homo sapiens, UniProt Q07343); experiment: Inhibition of recombinant His-tagged PDE4B1 (unknown origin) expressed in insect Sf9 cells using cAMP as substrate at 30 uM preincubated for 15 mins followed by substrate addition measured after 1 hr by luminescence assay relative to control
HCT-15 [2] = experiment: Cytotoxicity against human HCT15 cells assessed as cell death after 48 hrs by MTT assay; type: functional, cell-based; settings: HCT-15, 48 h
HCT-15 [3] = experiment: Cytotoxicity against human HCT15 cells assessed as cell death at 10 ug/mL after 48 hrs by MTT assay relative to control; type: functional; settings: HCT-15, 48 h
HCT-15 [4] = experiment: Cytotoxicity against human HCT15 cells assessed as cell death at 20 ug/mL after 48 hrs by MTT assay relative to control; type: functional; settings: HCT-15, 48 h
HCT-15 [5] = experiment: Cytotoxicity against human HCT15 cells assessed as cell death at 25 ug/mL after 48 hrs by MTT assay relative to control; type: functional; settings: HCT-15, 48 h
HCT-15 [6] = experiment: Cytotoxicity against human HCT15 cells assessed as cell death at 5 ug/mL after 48 hrs by MTT assay relative to control; type: functional; settings: HCT-15, 48 h
HCT-15 [7] = experiment: Cytotoxicity against human HCT15 cells assessed as cell death at 15 ug/mL after 48 hrs by MTT assay relative to control; type: functional; settings: HCT-15, 48 h
[8] = target: T1, 3',5'-cyclic-AMP phosphodiesterase 4B; experiment: Inhibition of recombinant His-tagged PDE4B1 (unknown origin) expressed in insect Sf9 cells using cAMP as substrate preincubated for 15 mins followed by substrate addition measured after 1 hr by luminescence assay

T1 sequence (Q07343 whole entry): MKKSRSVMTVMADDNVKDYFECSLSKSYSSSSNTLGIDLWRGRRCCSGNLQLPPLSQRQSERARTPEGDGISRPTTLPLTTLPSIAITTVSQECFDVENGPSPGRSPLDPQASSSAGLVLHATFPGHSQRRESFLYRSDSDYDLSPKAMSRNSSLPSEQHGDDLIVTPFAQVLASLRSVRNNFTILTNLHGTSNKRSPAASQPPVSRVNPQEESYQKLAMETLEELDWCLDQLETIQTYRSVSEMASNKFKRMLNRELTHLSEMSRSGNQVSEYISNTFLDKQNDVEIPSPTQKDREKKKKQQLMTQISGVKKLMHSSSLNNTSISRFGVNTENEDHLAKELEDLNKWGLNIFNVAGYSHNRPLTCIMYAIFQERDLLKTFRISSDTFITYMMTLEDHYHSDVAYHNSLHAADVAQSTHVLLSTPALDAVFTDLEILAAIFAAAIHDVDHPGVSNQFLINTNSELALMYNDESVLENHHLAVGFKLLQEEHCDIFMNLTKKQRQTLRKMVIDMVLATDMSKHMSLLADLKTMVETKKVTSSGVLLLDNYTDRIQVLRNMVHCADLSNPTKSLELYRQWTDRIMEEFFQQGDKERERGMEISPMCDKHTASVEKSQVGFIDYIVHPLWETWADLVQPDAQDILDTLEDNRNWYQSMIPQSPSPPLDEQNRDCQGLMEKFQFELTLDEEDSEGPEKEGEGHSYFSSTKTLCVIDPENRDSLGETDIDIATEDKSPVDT

Compound: COc1cccc2c1C(=O)c1c(O)c3c(c(O)c1C2=O)C[C@@](O)(C(=O)CO)C[C@@H]3O[C@H]1C[C@H](N)[C@H](O)[C@H](C)O1 [DOXORUBICIN]
- IC50 (HCT-15 [2]): 90 nM

Compound: CS(=O)(=O)Nc1ccc(NC(=O)Cn2cc(COc3ccccc3Cl)nn2)cc1Oc1ccccc1
- inhibition [1]: 42.5%

Compound: CS(=O)(=O)Nc1ccc(NC(=O)Cn2cc(COc3ccc4ccccc4c3)nn2)cc1Oc1ccccc1
- mortality at 10 µg/mL (HCT-15 [3]): 14.3%
- mortality at 20 µg/mL (HCT-15 [4]): 25.3%
- mortality at 25 µg/mL (HCT-15 [5]): 33.6%
- mortality at 5 µg/mL (HCT-15 [6]): 10.6%
- mortality at 15 µg/mL (HCT-15 [7]): 21.1%
- inhibition [1]: 59.7%

Compound: Cc1ccc(-c2cn(CC(=O)Nc3ccc(NS(C)(=O)=O)c(Oc4ccccc4)c3)nn2)cc1
- mortality at 10 µg/mL (HCT-15 [3]): 40.2%
- IC50 (HCT-15 [2]): 21 µg/mL
- mortality at 20 µg/mL (HCT-15 [4]): 49.6%
- mortality at 25 µg/mL (HCT-15 [5]): 53%
- mortality at 5 µg/mL (HCT-15 [6]): 37%
- mortality at 15 µg/mL (HCT-15 [7]): 45.6%
- inhibition [1]: 36%

Compound: CS(=O)(=O)Nc1ccc(NC(=O)Cn2cc(-c3ccccc3)nn2)cc1Oc1ccccc1
- mortality at 10 µg/mL (HCT-15 [3]): 15.2%
- IC50 (HCT-15 [2]): 22.4 µg/mL
- mortality at 20 µg/mL (HCT-15 [4]): 42.7%
- mortality at 25 µg/mL (HCT-15 [5]): 60.1%
- mortality at 5 µg/mL (HCT-15 [6]): 10.8%
- mortality at 15 µg/mL (HCT-15 [7]): 31%
- inhibition [1]: 64.1%
- IC50 [8]: 4920 nM
- inhibition [8]: Dose-dependent effect

Compound: Cc1ccc(OCc2cn(CC(=O)Nc3ccc(NS(C)(=O)=O)c(Oc4ccccc4)c3)nn2)cc1
- inhibition [1]: 56.7%

Compound: CS(=O)(=O)Nc1ccc(NC(=O)Cn2cc(COc3ccc(Cl)cc3)nn2)cc1Oc1ccccc1
- inhibition [1]: 51.3%

Results, then the compound that gave them:

- inhibition [1]: 47.1%
Compound: CS(=O)(=O)Nc1ccc(NC(=O)Cn2cc(COc3ccc([N+](=O)[O-])cc3)nn2)cc1Oc1ccccc1

- inhibition [1]: 32.9%
Compound: Cc1cc(OCc2cn(CC(=O)Nc3ccc(NS(C)(=O)=O)c(Oc4ccccc4)c3)nn2)ccc1Cl

- inhibition [1]: 51.2%
Compound: CS(=O)(=O)Nc1ccc(NC(=O)Cn2cc(COc3ccccc3)nn2)cc1Oc1ccccc1

- inhibition [1]: inactive
Compound: CS(=O)(=O)Nc1ccc([N+](=O)[O-])cc1Oc1ccccc1

- inhibition [1]: 94.1%
Compound: COc1ccc(C2CNC(=O)C2)cc1OC1CCCC1 (stereo unspecified)
